Key:
B16 tumor = test: Chemotherapy of subcutaneous B16 tumor with DOX particles; assay type: in vivo, mice; conditions: injected after 3 days
Procedure: To determine the maximum in vivo tolerated dose for the particles, a varying concentration of doses of 0 (PBS), 20, 40, and 60 mg/kg DOX equivalents are injected intravenously. The weights and general health of the mice are monitored until the ninth day after injection. Based on weight loss, the maximum injection of particles tolerated in mice is calculated. Once determined, mice are implanted subcutaneously with a B16 tumor. After 3 days mice are injected with PBS, free DOX, Ac-DEX particles encapsulating DOX, pegylated-Ac-DEX particles, or Doxcil (a commercially available doxorubicin/liposome conjugate). Mice are monitored for tumor growth. Once the tumor reaches an average diameter of 1.5 cm, the mice are sacrificed.

RAW macrophages = test: B3Z / LacZ MHC Class I antigen presentation assay; assay type: cell-based; conditions: APCs incubated with free or encapsulated ovalbumin
Procedure: The LacZ MHC Class I antigen presentation assay, as described by Sanderson, S.; Shastri, N. in Inter. Immun. 1994, 6, 369-376, is performed with degradable polymer particles made according to Example 3 with the modified hydroxylated polymers of Example 2 to test their ability to deliver proteins into APCs for Class I antigen presentation. This experiment uses the LacZ B3Z hybridoma, which is a CTL that recognizes the peptide sequence, […] (SEQ ID NO: 8), from ovalbumin, complexed with the MHC Class I molecule H-2K^b. This hybridoma produces β-galactosidase after encountering APCs that present […] as a Class I antigen, thus allowing Class I antigen presentation to be quantified by measuring β-galactosidase activity.
In order to assess the feasibility of using Ac-DEX based materials for vaccine applications, OVA-loaded Ac-DEX particles were incubated with RAW macrophages. […] 1×10^4 RAW macrophages were seeded overnight in a 96 well plate and subsequently incubated with OVA-containing Ac-DEX particles or free OVA. […] After six hours of incubation, Ac-DEX particles increased MHC class I presentation of the OVA-derived CD8^+ T-cell epitope, […], by a factor of 16 relative to free OVA (FIG. 15) measured by the B3Z assay (Karttunen, J.; Shastri, N., Proc. Natl. Acad. Sci. U.S.A. 1991, 88, 3972-6).

MO5 tumor cells = test: Tumor prophylactic vaccination, MO5 tumor challenge; assay type: in vivo, Mice; conditions: immunized subcutaneously day 0, 200,000 MO5 tumor cells day 7
Procedure: In one embodiment, Ac-DEX particles will encapsulate OVA similar to (Example 9 with B3Z assay) and be used in a tumor prophylactic and treatment vaccination against cancer. MO5 is a B16 tumor cell line that expresses OVA (Falo et al. 1995, Targeting antigen into the phagocytic pathway in vivo induces protective tumour immunity. Nat Med 1:649-53). Mice are immunized subcutaneously with 2 mg of Ac-DEX particles with a 2.5 wt % loading of OVA (50 μg of OVA) in the left flank on day 0. Other groups include mice which are injected with either OVA, saline, or Ac-DEX particles encapsulating OVA and an immunostimulatory CpG stimulant. We have shown earlier that adding CpG with acid labile particles drastically increases the efficacy of treatment(Standley et al. 2007, Incorporation of CpG oligonucleotide ligand into protein-loaded particle vaccines promotes antigen-specific CD8 T-cell immunity. Bioconjug Chem 18:77-83). CpG can be either co-injected with the particles, or it can be encapsulated inside the particles. […]
After injection, the tumor growth is monitored by measuring two perpendicular axes using calipers. Tumor volume is then calculated using the equation, volume=[…], with the length being the longest diameter and the width being the shortest diameter of the two perpendicular measurements. […]

Row | Molecule | tumor growth (order of groups) (B16 tumor) | activation of CTLs (Class I antigen presentation) (RAW macrophages) | tumor onset, tumor growth and survival time (MO5 tumor cells)
1 | COc1cccc2c1C(=O)c1c(O)c3c(c(O)c1C2=O)C[C@@](O)(C(=O)CO)C[C@@H]3O[C@H]1C[C@H](N)[C@H](O)[C@H](C)O1 [free Dox, doxorubicin] | fastest tumor growth followed by, free Dox, Ac-DEX particles, Doxcil and finally PEGylated Ac-DEX particles |  | 
2 | free ovalbumin: ovalbumin, model protein antigen, not encapsulated |  | not able to activate CTLs | fastest tumor onset and tumor growth

Reference: patent publication US9644039B2, “Acid-degradable and bioerodible modified polyhydroxylated materials” (The Regents of the University of California, priority 2008, dated 2017)
